ChEMBL document CHEMBL1275545, “Carbapenem-resistant Acinetobacter baumannii isolates expressing the blaOXA-23 gene associated with ISAba4 in Belgium” (2008)
≈ marks a conversion by molar mass, not a printed value.

System: Acinetobacter baumannii
Assay: Antibacterial activity against Acinetobacter baumannii GIL1 isolate harboring intrinsic blaOXA-51/69-like gene by Etest method
Type: functional

Compound	MIC [µg/mL]
NCC[C@H](O)C(=O)N[C@@H]1C[C@H](N)[C@@H](O[C@H]2O[C@H](CN)[C@@H](O)[C@H](O)[C@H]2O)[C@H](O)[C@H]1O[C@H]1O[C@H](CO)[C@@H](O)[C@H](N)[C@H]1O [AMIKACIN]	> 256
O=C(O)c1cn(C2CC2)c2cc(N3CCNCC3)c(F)cc2c1=O [CIPROFLOXACIN]	> 32
C[C@@H](O)[C@H]1C(=O)N2C(C(=O)O)=C(SCCNC=N)C[C@H]12 [IMIPENEM ANHYDROUS]	> 32
C[C@@H](O)[C@H]1C(=O)N2C(C(=O)O)=C(S[C@@H]3CN[C@H](C(=O)N(C)C)C3)[C@H](C)[C@H]12 [MEROPENEM]	> 32
CO[C@H]1/C=C/O[C@@]2(C)Oc3c(C)c(O)c4c(O)c(c(/C=N/N5CCN(C)CC5)c(O)c4c3C2=O)NC(=O)/C(C)=C\C=C\[C@H](C)[C@H](O)[C@@H](C)[C@@H](O)[C@@H](C)[C@H](OC(C)=O)[C@@H]1C [RIFAMPIN]	3 (≈ 3.65 µM)
CC1(C)[C@H](C(=O)O)N2C(=O)C[C@H]2S1(=O)=O [SULBACTAM]	48 (≈ 206 µM)
CN(C)c1cc(NC(=O)CNC(C)(C)C)c(O)c2c1C[C@H]1C[C@H]3[C@H](N(C)C)C(O)=C(C(N)=O)C(=O)[C@@]3(O)C(O)=C1C2=O [TIGECYCLINE]	6 (≈ 10.2 µM)
COLISTIN	0.5
